Laboratory results as given in BindingDB's records for doi:10.1021/jm00006a025 (Chungnam National University, 1995).

Each compound was assayed against T1, DNA topoisomerase 1 (Homo sapiens, UniProt P11387) (assay: Inhibitory activity against DNA topoisomerase-1 obtained from Hela cells).
T1 sequence (P11387 whole entry): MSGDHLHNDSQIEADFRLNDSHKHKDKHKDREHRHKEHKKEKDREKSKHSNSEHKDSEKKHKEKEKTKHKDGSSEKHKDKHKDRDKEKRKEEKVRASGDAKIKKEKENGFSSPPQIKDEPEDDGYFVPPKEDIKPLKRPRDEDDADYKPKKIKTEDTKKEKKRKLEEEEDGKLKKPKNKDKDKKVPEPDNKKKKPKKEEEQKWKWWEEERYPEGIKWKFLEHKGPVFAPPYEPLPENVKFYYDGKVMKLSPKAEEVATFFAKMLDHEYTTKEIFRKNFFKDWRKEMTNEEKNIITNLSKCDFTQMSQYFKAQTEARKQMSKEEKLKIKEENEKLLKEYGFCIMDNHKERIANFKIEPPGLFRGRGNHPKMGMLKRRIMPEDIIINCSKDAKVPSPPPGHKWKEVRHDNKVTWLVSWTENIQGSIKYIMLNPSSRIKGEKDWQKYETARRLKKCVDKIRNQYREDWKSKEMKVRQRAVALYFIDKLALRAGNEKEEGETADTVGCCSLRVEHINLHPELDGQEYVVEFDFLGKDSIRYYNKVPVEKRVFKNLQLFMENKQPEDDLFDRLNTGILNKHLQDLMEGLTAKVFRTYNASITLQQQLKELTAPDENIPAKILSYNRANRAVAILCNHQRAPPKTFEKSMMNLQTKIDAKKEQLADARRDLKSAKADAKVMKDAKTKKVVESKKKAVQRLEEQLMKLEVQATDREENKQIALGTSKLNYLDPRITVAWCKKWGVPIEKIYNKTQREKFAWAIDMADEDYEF

Row | SMILES | IC50 [µM]
1 | CC(C)=CC=C(OC(=O)C(c1ccccc1)c1ccccc1)c1cc(O)c2c(O)ccc(O)c2c1O | > 625
2 | CC(C)=CC=C(OC(=O)C=C(C)C=CC=C(C)/C=C/C1=C(C)CCCC1(C)C)c1cc(O)c2c(O)ccc(O)c2c1O [(2Z,4E,6E,8E)-3,7-Dimethyl-9-(2,6,6-trimethyl-cyclohex-1-enyl)-nona-2,4,6,8-tetraenoic acid (R)-1-(5,8-dihydroxy-1,4-dioxo-1,4-dihydro-naphthalen-2-yl)-4-methyl-pent-3-enyl ester] | > 625
3 | CCCCC/C=C/C/C=C/C/C=C/CCCCC(=O)OC(=CC=C(C)C)c1cc(O)c2c(O)ccc(O)c2c1O [(6E,9E,12E)-Octadeca-6,9,12-trienoic acid (R)-1-(5,8-dihydroxy-1,4-dioxo-1,4-dihydro-naphthalen-2-yl)-4-methyl-pent-3-enyl ester] | > 625
4 | CCCCC/C=C/C/C=C/CCCCCCCC(=O)OC(=CC=C(C)C)c1cc(O)c2c(O)ccc(O)c2c1O [(9E,12E)-Octadeca-9,12-dienoic acid (R)-1-(5,8-dihydroxy-1,4-dioxo-1,4-dihydro-naphthalen-2-yl)-4-methyl-pent-3-enyl ester] | > 625
5 | CCC/C=C/C(=O)OC(=CC=C(C)C)c1cc(O)c2c(O)ccc(O)c2c1O [(E)-Hex-2-enoic acid (R)-1-(5,8-dihydroxy-1,4-dioxo-1,4-dihydro-naphthalen-2-yl)-4-methyl-pent-3-enyl ester] | 153
6 | CC/C=C/CC(=O)OC(=CC=C(C)C)c1cc(O)c2c(O)ccc(O)c2c1O [(E)-Hex-3-enoic acid (R)-1-(5,8-dihydroxy-1,4-dioxo-1,4-dihydro-naphthalen-2-yl)-4-methyl-pent-3-enyl ester] | 153
7 | CC(C)=CC=C(OC(=O)c1ccccc1)c1cc(O)c2c(O)ccc(O)c2c1O [(R)-1-(5,8-dihydroxy-1,4-dioxo-1,4-dihydronaphthalen-2-yl)-4-methylpent-3-enyl benzoate] | 153
8 | CCCCCCCCC(=O)OC(=CC=C(C)C)c1cc(O)c2c(O)ccc(O)c2c1O [Nonanoic acid (R)-1-(5,8-dihydroxy-1,4-dioxo-1,4-dihydro-naphthalen-2-yl)-4-methyl-pent-3-enyl ester] | > 625
9 | CCCCCCCC(=O)OC(=CC=C(C)C)c1cc(O)c2c(O)ccc(O)c2c1O [Octanoic acid (R)-1-(5,8-dihydroxy-1,4-dioxo-1,4-dihydro-naphthalen-2-yl)-4-methyl-pent-3-enyl ester] | > 625

More lines, now with the values ahead:

Row | IC50 [µM] | SMILES
10 | > 625 | CCCCCCCC/C=C/CCCCCCCC(=O)OC(=CC=C(C)C)c1cc(O)c2c(O)ccc(O)c2c1O [(E)-Octadec-9-enoic acid (R)-1-(5,8-dihydroxy-1,4-dioxo-1,4-dihydro-naphthalen-2-yl)-4-methyl-pent-3-enyl ester]
11 | > 625 | CCCCCCCCCC(=O)OC(=CC=C(C)C)c1cc(O)c2c(O)ccc(O)c2c1O [Decanoic acid (R)-1-(5,8-dihydroxy-1,4-dioxo-1,4-dihydro-naphthalen-2-yl)-4-methyl-pent-3-enyl ester]
12 | > 625 | CCCCCCCCCCCC(=O)OC(=CC=C(C)C)c1cc(O)c2c(O)ccc(O)c2c1O [Dodecanoic acid (R)-1-(5,8-dihydroxy-1,4-dioxo-1,4-dihydro-naphthalen-2-yl)-4-methyl-pent-3-enyl ester]
13 | > 625 | CCCCCCCCCCCCCCCC(=O)OC(=CC=C(C)C)c1cc(O)c2c(O)ccc(O)c2c1O [Hexadecanoic acid (R)-1-(5,8-dihydroxy-1,4-dioxo-1,4-dihydro-naphthalen-2-yl)-4-methyl-pent-3-enyl ester]
14 | > 625 | CCCCCCCCCCCCCCCCCC(=O)OC(=CC=C(C)C)c1cc(O)c2c(O)ccc(O)c2c1O [Octadecanoic acid (R)-1-(5,8-dihydroxy-1,4-dioxo-1,4-dihydro-naphthalen-2-yl)-4-methyl-pent-3-enyl ester]
